Experimental data published in patent publication US20240150351A1, “BICYCLIC COMPOUNDS” (Aligos Therapeutics, Inc., priority 2022, published 2024).
Structures can show the parent of a compound that is named as a salt.

What was measured:
HBV = assay: HBV-DNA antiviral assay using HepG2.117 cells (intracellular HBV DNA by qPCR); type: cell-based, genotype D HBV; details: 3 days incubation, HBV DNA inhibition
Method: (§1) The following assay procedure describes the HBV antiviral assay, using HepG2.117 cells, which carry a stably integrated genotype D HBV genome under the control of a Tet-off promoter, and intracellular HBV DNA quantification as endpoint. Cell viability is assessed in parallel by measuring the intracellular ATP content using CellTiter-Glo 2.0 (Promega).
On day 0, HepG2.117 cells (which are maintained in routine cell culture with doxycycline present in the medium at a final concentration of 1 μg/mL) are seeded in 96-well plates (white with clear bottom) at a density of 2.0×10^4 cells/well (0.1 mL/well) in medium without doxycycline to induce pgRNA transcription and subsequent formation of HBV particles. The cells are incubated at 37° C. and 5% CO2.
(§2) On day 1, medium is removed from each well, the test articles are diluted in culture medium without doxcycyline and 100 μL was added to cell culture wells (9 concentrations, 4-fold dilution). For each plate, 6 untreated (merely DMSO) wells are included. The final concentration of DMSO in the culture medium is 2%. Each plate is prepared in duplicate (one for HBV DNA extraction, one for CellTiter-Glo 2.0 measurement). The cells are incubated at 37° C. and 5% CO2 for 3 days.
(§3) On day 4, cell viability is assessed using CellTiter-Glo 2.0 and cell lysates are prepared for HBV DNA extraction and subsequent quantification by qPCR.
HBV DNA Quantification by qPCR
Medium is removed from each well and 100 μL of 0.33% NP-40 in H2O was added to each well. Plates are sealed, incubated at 4° C. for 5 mins, vortexed extensively and centrifuged briefly. Next, 35 μL of lysate is added to 65 μL QuickExtract DNA Extraction Solution (Epicentre) in a PCR plate for each well. PCR plate is incubated at 65° C. for 6 mins, 98° C. for 2 mins and finally cooled to 4° C. HBV DNA is then quantified by qPCR with HBV-specific primers and probes as specified in Table 2 using the Bio-Rad SSOAdvanced Universal Probes Supermix on a CFX96 machine (Bio-Rad). The PCR cycle program consisted of 95° C. for 3 mins, followed by 40 cycles at 95° C. for 10 sec and 60° C. for 30 sec.
A DNA standard is prepared by dilution of an IDT gBlock corresponding to the amplicon with concentrations ranging from 10^2 to 10^8 copies/input (i.e., per 4 μL) and used to generate a standard curve by plotting Cq values vs. HBV DNA standard concentration. The quantity of HBV DNA in each sample is determined by interpolating from the standard curve.
(§4) Cell viability is calculated as follows: % Cell viability=(luminescence value of test sample)/(average luminescence value of 2% DMSO control)×100%. HBV DNA inhibition was calculated as follows: 100−(HBV DNA copy number of test sample)/(average HBV DNA copy number of 2% DMSO control)×100%. No normalization to entecavir is required due to the excellent dynamic window of this assay. The CC50, EC50 and EC90 values were determined by dose-response curves fitted using non-linear regression.

[1] = Cell viability by CellTiter-Glo 2.0 (intracellular ATP content); type: cell-based; details: human, HepG2.117 cells, 3 days incubation
Method: as §1, §2, §3
(§5) Using the other plates, the cell viability is quantified by CellTiter-Glo 2.0 according to the manufacturer's manual. In brief, 100 μL of reagent solution is added to the culture plates and shaken for 2′. The plates are incubated at rt for 10 min and luminescence signal is subsequently measured on a VarioSkan Lux (ThermoFisher) plate reader.
as §4

HepG2.117 cells = assay: as above; type: cell-based; details: 3 days incubation
Method: as §1, §2, §3, §5, §4

C=C[C@H](C)Nc1nc2c(c(=O)n1-c1ccc(C(=O)N(C)C(=O)OCOC(=O)C[C@H](O)C(=O)O)cc1)C[C@@H](C)N(C(=O)c1ccc(Br)c(C(F)(F)F)c1)C2 [Compound 9, (S)-4-((((4-((R)-7-(4-bromo-3-(trifluoromethyl)benzoyl)-2-(((S)-but-3-en-2-yl)amino)-6-methyl-4-oxo-5,6,7,8-tetrahydropyrido[3,4-d]pyrimidin-3(4H)-yl)benzoyl)(methyl)carbamoyl)oxy)methoxy)-2-hydroxy-4-oxobutanoic acid]
EC50 (HBV; Hepatitis B virus, 72 h): ≤ 50 nM | CC50 at 3 days [1]: > 50 µM

C=C[C@H](C)Nc1nc2c(c(=O)n1-c1ccc(C(=O)N(C)C(=O)O[C@@H](C)OC(=O)[C@@H](N)C(C)C)cc1)C[C@@H](C)N(C(=O)c1ccc(Br)c(C(F)(F)F)c1)C2 (relative stereo) [Compound 6, (*S)-1-(((4-((R)-7-(4-bromo-3-(trifluoromethyl)benzoyl)-2-(((S)-but-3-en-2-yl)amino)-6-methyl-4-oxo-5,6,7,8-tetrahydropyrido[3,4-d]pyrimidin-3(4H)-yl)benzoyl)(methyl)carbamoyl)oxy)ethyl L-valinate hydrochloride]
EC50 (HBV): ≤ 50 nM | CC50 (HepG2.117 cells): > 50 µM

C=C[C@H](C)Nc1nc2c(c(=O)n1-c1ccc(C(=O)N(C)C(=O)O[C@H](C)OC(=O)[C@@H](N)C(C)C)cc1)C[C@@H](C)N(C(=O)c1ccc(Br)c(C(F)(F)F)c1)C2 (relative stereo) [Compound 7, (*R)-1-(((4-((R)-7-(4-bromo-3-(trifluoromethyl)benzoyl)-2-(((S)-but-3-en-2-yl)amino)-6-methyl-4-oxo-5,6,7,8-tetrahydropyrido[3,4-d]pyrimidin-3(4H)-yl)benzoyl)(methyl)carbamoyl)oxy)ethyl L-valinate hydrochloride]
EC50 (HBV): ≤ 50 nM | CC50 (HepG2.117 cells): > 50 µM

C=C[C@H](C)Nc1nc2c(c(=O)n1-c1ccc(C(=O)N(C)C(=O)OCOP(=O)(O)O)cc1)C[C@@H](C)N(C(=O)c1ccc(Br)c(C(F)(F)F)c1)C2 [Compound 2, (phosphonooxy)methyl (4-((R)-7-(4-bromo-3-(trifluoromethyl)benzoyl)-2-(((S)-but-3-en-2-yl)amino)-6-methyl-4-oxo-5,6,7,8-tetrahydropyrido[3,4-d]pyrimidin-3(4H)-yl)benzoyl)(methyl)carbamate]
EC50 (HBV; Hepatitis B virus, 72 h): ≤ 50 nM | CC50 at 3 days [1]: > 50 µM

C=C[C@H](C)Nc1nc2c(c(=O)n1-c1ccc(C(=O)NC)cc1)C[C@@H](C)N(C(=O)c1ccc(Br)c(C(F)(F)F)c1)C2 [Compound 1, 4-((R)-7-(4-bromo-3-(trifluoromethyl)benzoyl)-2-(((S)-but-3-en-2-yl)amino)-6-methyl-4-oxo-5,6,7,8-tetrahydropyrido[3,4-d]pyrimidin-3(4H)-yl)-N-methylbenzamide]
EC50 (HBV; Hepatitis B virus, 72 h): ≤ 50 nM | CC50 at 3 days [1]: 46.8 µM

C=C[C@H](C)Nc1nc2c(c(=O)n1-c1ccc(C(=O)N(C)C(=O)O[C@H](OC(=O)[C@@H](N)C(C)C)C(C)C)cc1)C[C@@H](C)N(C(=O)c1ccc(Br)c(C(F)(F)F)c1)C2 (relative stereo) [Compound 10, (*S)-1-(((4-((R)-7-(4-bromo-3-(trifluoromethyl)benzoyl)-2-(((S)-but-3-en-2-yl)amino)-6-methyl-4-oxo-5,6,7,8-tetrahydropyrido[3,4-d]pyrimidin-3(4H)-yl)benzoyl)(methyl)carbamoyl)oxy)-2-methylpropyl L-valinate hydrochloride]
EC50 (HBV): ≤ 50 nM | CC50 (HepG2.117 cells): > 50 µM

C=C[C@H](C)Nc1nc2c(c(=O)n1-c1ccc(C(=O)N(C)C(=O)OCOC(=O)[C@@H](N)C(C)C)cc1)C[C@@H](C)N(C(=O)c1ccc(Br)c(C(F)(F)F)c1)C2 [Compound 4, (((4-((R)-7-(4-bromo-3-(trifluoromethyl)benzoyl)-2-(((S)-but-3-en-2-yl)amino)-6-methyl-4-oxo-5,6,7,8-tetrahydropyrido[3,4-d]pyrimidin-3(4H)-yl)benzoyl)(methyl)carbamoyl)oxy)methyl L-valinate hydrochloride]
EC50 (HBV; Hepatitis B virus, 72 h): ≤ 50 nM | CC50 at 3 days [1]: > 50 µM

C=C[C@H](C)Nc1nc2c(c(=O)n1-c1ccc(C(=O)N(C)C(=O)OCOC(=O)/C=C/C(=O)O)cc1)C[C@@H](C)N(C(=O)c1ccc(Br)c(C(F)(F)F)c1)C2 [Compound 3, (E)-4-((((4-((R)-7-(4-bromo-3-(trifluoromethyl)benzoyl)-2-(((S)-but-3-en-2-yl)amino)-6-methyl-4-oxo-5,6,7,8-tetrahydropyrido[3,4-d]pyrimidin-3(41H)-yl)benzoyl)(methyl)carbamoyl)oxy)methoxy)-4-oxobut-2-enoic acid]
EC50 (HBV; Hepatitis B virus, 72 h): ≤ 50 nM | CC50 at 3 days [1]: > 50 µM

C=C[C@H](C)Nc1nc2c(c(=O)n1-c1ccc(C(=O)N(C)C(=O)O[C@@H](OC(=O)[C@@H](N)C(C)C)C(C)C)cc1)C[C@@H](C)N(C(=O)c1ccc(Br)c(C(F)(F)F)c1)C2 (relative stereo) [Compound 11, (*R)-1-(((4-((R)-7-(4-bromo-3-(trifluoromethyl)benzoyl)-2-(((S)-but-3-en-2-yl)amino)-6-methyl-4-oxo-5,6,7,8-tetrahydropyrido[3,4-d]pyrimidin-3(4H)-yl)benzoyl)(methyl)carbamoyl)oxy)-2-methylpropyl L-valinate hydrochloride]
EC50 (HBV): ≤ 50 nM | CC50 (HepG2.117 cells): > 50 µM

C=C[C@H](C)Nc1nc2c(c(=O)n1-c1ccc(C(=O)N(C)CO)cc1)C[C@@H](C)N(C(=O)c1ccc(Br)c(C(F)(F)F)c1)C2 [Compound 8, 4-((R)-7-(4-bromo-3-(trifluoromethyl)benzoyl)-2-(((S)-but-3-en-2-yl)amino)-6-methyl-4-oxo-5,6,7,8-tetrahydropyrido[3,4-d]pyrimidin-3(4H)-yl)-N-(hydroxymethyl)-N-methylbenzamide]
EC50 (HBV; Hepatitis B virus, 72 h): ≤ 50 nM | CC50 at 3 days [1]: > 50 µM

C=C[C@H](C)Nc1nc2c(c(=O)n1-c1ccc(C(=O)N(C)C(=O)OCOC(=O)[C@H](N)C(C)C)cc1)C[C@@H](C)N(C(=O)c1ccc(Br)c(C(F)(F)F)c1)C2 [Compound 5, (((4-((R)-7-(4-bromo-3-(trifluoromethyl)benzoyl)-2-(((S)-but-3-en-2-yl)amino)-6-methyl-4-oxo-5,6,7,8-tetrahydropyrido[3,4-d]pyrimidin-3(4H)-yl)benzoyl)(methyl)carbamoyl)oxy)methyl D-valinate hydrochloride]
EC50 (HBV; Hepatitis B virus, 72 h): ≤ 50 nM | CC50 at 3 days [1]: 48.8 µM
